Reference: US11331369B2, “Endoparasitic depsipeptides” (Zoetis Services LLC, priority 2017, dated 2022)

Test system: microfilariae of Dirofilaria immitis
Assay: Dirofilaria immitis, Microfilaria (DiMF) In vitro Assay
Format: cell-based
Settings: 72 h, read-out: DiMF Minimum Effective Dose (MED), approximately 72 hours incubation, microfilariae assessed for survival or paralysis

SMILES	minimal effective concentration
CC(C)C[C@H]1C(=O)O[C@H](Cc2cccc(Cn3cc(-c4ccccn4)cn3)c2)C(=O)N(C)[C@@H](CC(C)C)C(=O)O[C@H](C)C(=O)N(C)[C@@H](CC(C)C)C(=O)O[C@H](Cc2cccc(Cn3cc(-c4ccccn4)cn3)c2)C(=O)N(C)[C@@H](CC(C)C)C(=O)O[C@H](C)C(=O)N1C [Example 4-16, (3S,6R,9S,12R,15S,18R,21S,24R)-3,9,15,21-tetraisobutyl-4,6,10,16,18,22-hexamethyl-12,24-bis(3-((4-(pyridin-2-yl)-1H-pyrazol-1-yl)methyl)benzyl)-1,7,13,19-tetraoxa-4,10,16,22-tetraazacyclotetracosan-2,5,8,11,14,17,20,23-octaone]	0.01 to 0.1 µM
CC(C)C[C@H]1C(=O)O[C@H](Cc2cccc(Cn3cc(O)cn3)c2)C(=O)N(C)[C@@H](CC(C)C)C(=O)O[C@H](C)C(=O)N(C)[C@@H](CC(C)C)C(=O)O[C@H](Cc2cccc(Cn3cc(O)cn3)c2)C(=O)N(C)[C@@H](CC(C)C)C(=O)O[C@H](C)C(=O)N1C [Example 4-17, (3S,6R,9S,12R,15S,18R,21S,24R)-6,18-bis(3-((4-hydroxy-1H-pyrazol-1-yl)methyl)benzyl)-3,9,15,21-tetraisobutyl-4,10,12,16,22,24-hexamethyl-1,7,13,19-tetraoxa-4,10,16,22-tetraazacyclotetracosan-2,5,8,11,14,17,20,23-octaone]	0.01 to 0.1 µM
CC(C)C[C@H]1C(=O)O[C@H](Cc2cccc(Cn3cc(F)cn3)c2)C(=O)N(C)[C@@H](CC(C)C)C(=O)O[C@H](C)C(=O)N(C)[C@@H](CC(C)C)C(=O)O[C@H](Cc2ccccc2)C(=O)N(C)[C@@H](CC(C)C)C(=O)O[C@H](C)C(=O)N1C [Example 5-1, (3S,6R,9S,12R,15S,18R,21S,24R)-6-benzyl-18-(3-((4-fluoro-1H-pyrazol-1-yl)methyl)benzyl)-3,9,15,21-tetraisobutyl-4,10,12,16,22,24-hexamethyl-1,7,13,19-tetraoxa-4,10,16,22-tetraazacyclotetracosan-2,5,8,11,14,17,20,23-octaone]	0.001 to 0.01 µM
CC(C)C[C@H]1C(=O)O[C@H](Cc2cccc(Cn3cc([N+](=O)[O-])cn3)c2)C(=O)N(C)[C@@H](CC(C)C)C(=O)O[C@H](C)C(=O)N(C)[C@@H](CC(C)C)C(=O)O[C@H](Cc2ccccc2)C(=O)N(C)[C@@H](CC(C)C)C(=O)O[C@H](C)C(=O)N1C [Example 5-2, (3S,6R,9S,12R,15S,18R,21S,24R)-6-benzyl-3,9,15,21-tetraisobutyl-4,10,12,16,22,24-hexamethyl-18-(3-((4-nitro-1H-pyrazol-1-yl)methyl)benzyl)-1,7,13,19-tetraoxa-4,10,16,22-tetraazacyclotetracosan-2,5,8, 11,14,17,20,23-octaone]	0.001 to 0.01 µM
CC(C)C[C@H]1C(=O)O[C@H](Cc2cccc(Cn3cc(O)cn3)c2)C(=O)N(C)[C@@H](CC(C)C)C(=O)O[C@H](C)C(=O)N(C)[C@@H](CC(C)C)C(=O)O[C@H](Cc2ccccc2)C(=O)N(C)[C@@H](CC(C)C)C(=O)O[C@H](C)C(=O)N1C [Example 5-3, (3S,6R,9S,12R,15S,18R,21S,24R)-6-benzyl-18-(3-((4-hydroxy-1H-pyrazol-1-yl)methyl)benzyl)-3,9,15,21-tetraisobutyl-4,10,12,16,22,24-hexamethyl-1,7,13,19-tetraoxa-4,10,16,22-tetraazacyclotetracosan-2,5,8,11,14,17,20,23-octaone]	0.01 to 0.1 µM
CC(C)C[C@H]1C(=O)O[C@H](Cc2cccc(Cn3nc(CO)cc3CO)c2)C(=O)N(C)[C@@H](CC(C)C)C(=O)O[C@H](C)C(=O)N(C)[C@@H](CC(C)C)C(=O)O[C@H](Cc2ccccc2)C(=O)N(C)[C@@H](CC(C)C)C(=O)O[C@H](C)C(=O)N1C [Example 5-4, (3S,6R,9S,12R,15S,18R,21S,24R)-6-benzyl-18-(3-((3,5-bis(hydroxymethyl)-1H-pyrazol-1-yl)methyl)benzyl)-3,9,15,21-tetraisobutyl-4,10,12,16,22,24-hexamethyl-1,7,13,19-tetraoxa-4,10,16,22-tetraazacyclotetracosan-2,5,8,11,14,17,20,23-octaone]	0.01 to 0.1 µM
CC(C)C[C@H]1C(=O)O[C@H](Cc2cccc(Cn3nc(C4CC4)cc3C3CC3)c2)C(=O)N(C)[C@@H](CC(C)C)C(=O)O[C@H](C)C(=O)N(C)[C@@H](CC(C)C)C(=O)O[C@H](Cc2ccccc2)C(=O)N(C)[C@@H](CC(C)C)C(=O)O[C@H](C)C(=O)N1C [Example 5-6, (3S,6R,9S,12R,15S,18R,21S,24R)-6-benzyl-18-(3-((3,5-dicyclopropyl-1H-pyrazol-1-yl)methyl)benzyl)-3,9,15,21-tetraisobutyl-4,10,12,16,22,24-hexamethyl-1,7,13,19-tetraoxa-4,10,16,22-tetraazacyclotetracosan-2,5,8,11,14,17,20,23-octaone]	0.01 to 0.1 µM
Cc1nccn1Cc1ccc(C[C@H]2OC(=O)[C@H](CC(C)C)N(C)C(=O)[C@@H](C)OC(=O)[C@H](CC(C)C)N(C)C(=O)[C@@H](Cc3ccc(Cn4ccnc4C)cc3)OC(=O)[C@H](CC(C)C)N(C)C(=O)[C@@H](C)OC(=O)[C@H](CC(C)C)N(C)C2=O)cc1 [Example 6-1, (3S,6R,9S,12R,15S,18R,21S,24R)-3,9,15,21-tetraisobutyl-4,6,10,16,18,22-hexamethyl-12,24-bis[[4-[(2-methylimidazol-1-yl)methyl]phenyl]methyl]-1,7,13,19-tetraoxa-4,10,16,22-tetrazacyclotetracosane-2,5,8,11,14,17,20,23-octaone]	0.001 to 0.01 µM
CC(C)C[C@H]1C(=O)O[C@H](Cc2ccc(Cn3ccnc3)cc2)C(=O)N(C)[C@@H](CC(C)C)C(=O)O[C@H](C)C(=O)N(C)[C@@H](CC(C)C)C(=O)O[C@H](Cc2ccc(Cn3ccnc3)cc2)C(=O)N(C)[C@@H](CC(C)C)C(=O)O[C@H](C)C(=O)N1C [Example 6-2, (3S,6R,9S,12R,15S,18R,21S,24R)-6,18-bis[[4-(imidazol-1-ylmethyl)phenyl]methyl]-3,9,15,21-tetraisobutyl-4,10,12,16,22,24-hexamethyl-1,7,13,19-tetraoxa-4,10,16,22-tetrazacyclotetracosane-2,5,8,11,14,17,20,23-octaone]	0.01 to 0.1 µM
CCc1nccn1Cc1ccc(C[C@H]2OC(=O)[C@H](CC(C)C)N(C)C(=O)[C@@H](C)OC(=O)[C@H](CC(C)C)N(C)C(=O)[C@@H](Cc3ccc(Cn4ccnc4CC)cc3)OC(=O)[C@H](CC(C)C)N(C)C(=O)[C@@H](C)OC(=O)[C@H](CC(C)C)N(C)C2=O)cc1 [Example 6-4, (3S,6R,9S,12R,15S,18R,21S,24R)-6,18-bis[[4-[(2-ethylimidazol-1-yl)methyl]phenyl]methyl]-3,9,15,21-tetraisobutyl-4,10,12,16,22,24-hexamethyl-1,7,13,19-tetraoxa-4,10,16,22-tetrazacyclotetracosane-2,5,8,11,14,17,20,23-octaone]	0.01 to 0.1 µM
Cc1cn(Cc2ccc(C[C@H]3OC(=O)[C@H](CC(C)C)N(C)C(=O)[C@@H](C)OC(=O)[C@H](CC(C)C)N(C)C(=O)[C@@H](Cc4ccc(Cn5cc(C)nc5C)cc4)OC(=O)[C@H](CC(C)C)N(C)C(=O)[C@@H](C)OC(=O)[C@H](CC(C)C)N(C)C3=O)cc2)c(C)n1 [Example 6-5, (3S,6R,9S,12R,15S,18R,21S,24R)-6,18-bis(4-((2,4-dimethyl-1H-imidazol-1-yl)methyl)benzyl)-3,9,15,21-tetraisobutyl-4,10,12,16,22,24-hexamethyl-1,7,13,19-tetraoxa-4,10,16,22-tetraazacyclotetracosan-2,5,8,11,14,17,20,23-octaone]	0.01 to 0.1 µM
CC(C)C[C@H]1C(=O)O[C@H](Cc2ccc(Cn3ccnc3C(C)(C)C)cc2)C(=O)N(C)[C@@H](CC(C)C)C(=O)O[C@H](C)C(=O)N(C)[C@@H](CC(C)C)C(=O)O[C@H](Cc2ccc(Cn3ccnc3C(C)(C)C)cc2)C(=O)N(C)[C@@H](CC(C)C)C(=O)O[C@H](C)C(=O)N1C [Example 6-6, (3S,6R,9S,12R,15S,18R,21S,24R)-6,18-bis[[4-[(2-tert-butylimidazol-1-yl)methyl]phenyl]methyl]-3,9,15,21-tetraisobutyl-4,10,12,16,22,24-hexamethyl-1,7,13,19-tetraoxa-4,10,16,22-tetrazacyclotetracosane-2,5,8,11,14,17,20,23-octaone]	0.01 to 0.1 µM
CC(C)C[C@H]1C(=O)O[C@H](Cc2ccc(Cn3ccnc3C(C)C)cc2)C(=O)N(C)[C@@H](CC(C)C)C(=O)O[C@H](C)C(=O)N(C)[C@@H](CC(C)C)C(=O)O[C@H](Cc2ccc(Cn3ccnc3C(C)C)cc2)C(=O)N(C)[C@@H](CC(C)C)C(=O)O[C@H](C)C(=O)N1C [Example 6-8, (3S,6R,9S,12R,15S,18R,21S,24R)-3,9,15,21-tetraisobutyl-6,18-bis(4-((2-isopropyl-1H-imidazol-1-yl)methyl)benzyl)-4,10,12,16,22,24-hexamethyl-1,7,13,19-tetraoxa-4,10,16,22-tetraazacyclotetracosan-2,5,8,11,14,17,20,23-octaone]	0.01 to 0.1 µM
CC(C)C[C@H]1C(=O)O[C@H](Cc2ccc(Cn3ccnc3I)cc2)C(=O)N(C)[C@@H](CC(C)C)C(=O)O[C@H](C)C(=O)N(C)[C@@H](CC(C)C)C(=O)O[C@H](Cc2ccc(Cn3ccnc3I)cc2)C(=O)N(C)[C@@H](CC(C)C)C(=O)O[C@H](C)C(=O)N1C [Example 6-10, (3S,6R,9S,12R,15S,18R,21S,24R)-6,18-bis(4-((2-iodo-1H-imidazol-1-yl)methyl)benzyl)-3,9,15,21-tetraisobutyl-4,10,12,16,22,24-hexamethyl-1,7,13,19-tetraoxa-4,10,16,22-tetraazacyclotetracosan-2,5,8,11,14,17,20,23-octaone]	0.01 to 0.1 µM
CC(C)C[C@H]1C(=O)O[C@H](Cc2ccc(Cn3ccnc3-c3ccccc3)cc2)C(=O)N(C)[C@@H](CC(C)C)C(=O)O[C@H](C)C(=O)N(C)[C@@H](CC(C)C)C(=O)O[C@H](Cc2ccc(Cn3ccnc3-c3ccccc3)cc2)C(=O)N(C)[C@@H](CC(C)C)C(=O)O[C@H](C)C(=O)N1C [Example 6-11, (3S,6R,9S,12R,15S,18R,21S,24R)-3,9,15,21-tetraisobutyl-4,6,10,16,18,22-hexamethyl-12,24-bis(4-((2-phenyl-1H-imidazol-1-yl)methyl)benzyl)-1,7,13,19-tetraoxa-4,10,16,22-tetraazacyclotetracosan-2,5,8,11,14,17,20,23-octaone]	0.01 to 0.1 µM
